The results in this text go back to PubChem BioAssay (NCI).

Each structure is given as a SMILES string. Several values for one entry are separate records, joined by “and”; a condition that tells them apart may be missing. Equal values may be shown once.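 Test compounds were applied to cells in 96-well plates for 48 hours at 5 doses. GI50 is the concentration that inhibits growth by half. TGI: concentration producing complete growth inhibition.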 *1 amine or outer side, *2 acyl side, *3 side chain or, on linkers, in order; H or OH if unused. Where a SMILES comes first, the peptide text is derived from it. Bridges are numbered along the chain shown (N, C = ends). [ ]: non-standard residue; d: D form. ξ: configuration not given here. X4 = CCC(C)C(N[*:1])C(O)CC(=O)O[C@H](C(=O)C(C)C(=O)[*:2])C(C)C; NMeY = CN[C@@H](Cc1ccc(O)cc1)C(=O)O; X9 = O=C([C@@H]1CC(O)CN1[*:1])[*:2]; ξNMeL = CNC(CC(C)C)C(=O)O; ξT = CC(O)C(N)C(=O)O

Test systems include NCI-H522 lung; OVCAR-5 ovarian; UACC-62 melanoma; SK-MEL-5 melanoma; T-47D breast; IGROV1 ovarian; COLO 205 colon; NCI/ADR-RES ovarian; OVCAR-8 ovarian; SR leukemia.
Holding throughout (assay): NCI anticancer screen, dose series, 48 h

For `COc1ccc(C2CC(=O)Nc3c2c(C)nn3-c2nc3ccccc3[nH]2)cc1` (stereo not given), the GI50 in the assay with NCI-H522 lung is 2.67 µM; in the assay on OVCAR-5 ovarian, 4.52 µM; with UACC-62 melanoma, 1.94 µM; with SK-MEL-5 melanoma, 1.82 µM; in the assay with T-47D breast, 3.92 µM; with IGROV1 ovarian it was 2.38 µM. Besides, the GI50 in the assay on COLO 205 colon was 3.59 µM; in the assay with NCI/ADR-RES ovarian, 5.61 µM; in the assay on OVCAR-8 ovarian, 3.76 µM; in the assay with SR leukemia it was 2.96 µM. Further, the TGI in the assay on NCI-H522 lung was 7.15 µM; in the assay on OVCAR-5 ovarian it was greater than 70.1 µM; in the assay on UACC-62 melanoma it was 4.16 µM; with SK-MEL-5 melanoma, 3.71 µM; with T-47D breast it was greater than 41.9 µM; in the assay with IGROV1 ovarian, 5.26 µM. Moreover, the TGI in the assay with COLO 205 colon was 14.7 µM; in the assay on NCI/ADR-RES ovarian, greater than 100 µM; in the assay on OVCAR-8 ovarian it was greater than 100 µM; in the assay with SR leukemia it was greater than 25.1 µM.

Turning to `C#Cc1cccc(NC(=O)Nc2ccc(NC(=O)CCl)cc2)c1`, the GI50 in the assay on NCI-H522 lung was 12.2 µM; with OVCAR-5 ovarian, 14.3 µM; in the assay with UACC-62 melanoma, 17.4 µM; with SK-MEL-5 melanoma it was 15.1 µM; in the assay on T-47D breast it was 15.9 µM; with IGROV1 ovarian, 12.1 µM. The GI50 with COLO 205 colon is 20.5 µM; in the assay with NCI/ADR-RES ovarian, 23.3 µM; in the assay with OVCAR-8 ovarian, 22.5 µM; in the assay on SR leukemia it was 9.79 µM. Further, the TGI was found to be 29.3 µM in the assay with NCI-H522 lung; 28.2 µM with OVCAR-5 ovarian; 61 µM in the assay on UACC-62 melanoma; 28.7 µM with SK-MEL-5 melanoma; 69.8 µM in the assay on T-47D breast; 25.5 µM in the assay on IGROV1 ovarian. Further, the TGI with COLO 205 colon was 60.3 µM; with NCI/ADR-RES ovarian, 70 µM; with OVCAR-8 ovarian it was greater than 82.5 µM; in the assay on SR leukemia, 26.7 µM.

Turning to `COc1cc2c(cc1OCCCCCOc1cc(-c3ccc(F)cc3)nc(C)n1)N=C[C@@H]1CCCN1C2=O`, the GI50 with NCI-H522 lung is greater than 20.5 µM; with OVCAR-5 ovarian, greater than 100 µM; in the assay on UACC-62 melanoma it was greater than 38.1 µM; in the assay on T-47D breast it was 6.27 µM; with IGROV1 ovarian it was greater than 27.8 µM; with COLO 205 colon, 4.32 µM. Also, the GI50 is greater than 100 µM with NCI/ADR-RES ovarian and greater than 37.3 µM with OVCAR-8 ovarian. Further, the TGI is greater than 42.3 µM with NCI-H522 lung; greater than 100 µM in the assay on OVCAR-5 ovarian; greater than 56.2 µM in the assay on UACC-62 melanoma; greater than 26.2 µM in the assay with SK-MEL-5 melanoma; 59.6 µM with T-47D breast; greater than 49.6 µM in the assay with IGROV1 ovarian. Further, the TGI in the assay on COLO 205 colon is 7.64 µM; in the assay with NCI/ADR-RES ovarian, greater than 100 µM; in the assay with OVCAR-8 ovarian, greater than 54.7 µM; in the assay with SR leukemia, greater than 57.9 µM.

As for `CCC(C)C1NC(=O)C(NC(=O)C(CC(C)C)N(C)C(=O)[C@@H]2CC(O)CN2)C(C)OC(=O)[C@H](Cc2ccc(OC)cc2)N(C)C(=O)[C@@H]2CCCN2C(=O)[C@H](CC(C)C)NC(=O)C(C)C(=O)[C@H](C(C)C)OC(=O)CC1O` (stereo not given in full) (H-[X9][ξNMeL][ξT][X4]LP[NMeY](Me); ester 3-C), the TGI was 0.0519 µM and 0.0638 µM in the assay with NCI-H522 lung; 0.559 µM and 1.49 µM with OVCAR-5 ovarian; 0.0231 µM and 0.0117 µM with UACC-62 melanoma; 0.101 µM and 0.0147 µM with SK-MEL-5 melanoma; 0.0657 µM and 0.0994 µM in the assay with T-47D breast; 0.107 µM and 0.141 µM in the assay on IGROV1 ovarian. Moreover, the TGI in the assay with COLO 205 colon was 0.0156 µM; with NCI/ADR-RES ovarian it was greater than 100 µM; in the assay with OVCAR-8 ovarian, 0.759 µM and 1.06 µM; in the assay on SR leukemia, greater than 100 µM. The GI50 in the assay on OVCAR-5 ovarian is 0.365 µM; in the assay on NCI/ADR-RES ovarian, 4.46 µM; in the assay on OVCAR-8 ovarian, 0.0238 µM.

`COc1cc(N2CCC(N(C)C)CC2)ccc1Nc1ncc(Cl)c(Nc2ccccc2P(C)(C)=O)n1`: the GI50 was 0.483 µM and 0.115 µM in the assay with NCI-H522 lung; 0.351 µM and 0.198 µM in the assay on OVCAR-5 ovarian; 3.07 µM and 0.775 µM in the assay on UACC-62 melanoma; 4.34 µM and 2.72 µM with SK-MEL-5 melanoma; 7.03 µM and 1.43 µM in the assay with T-47D breast; 0.687 µM and 0.181 µM in the assay with IGROV1 ovarian. For the same compound, the GI50 is 0.252 µM and 0.0658 µM in the assay with COLO 205 colon; 15.6 µM and > 6.15 µM with NCI/ADR-RES ovarian; 2.77 µM and 0.926 µM with OVCAR-8 ovarian; < 0.0113 µM and 0.0295 µM in the assay on SR leukemia. Further, the TGI is 6.08 µM and 3.32 µM in the assay on NCI-H522 lung; 8.97 µM and > 10 µM in the assay with OVCAR-5 ovarian; 20.2 µM and > 5.16 µM with UACC-62 melanoma; 17 µM and > 6.71 µM in the assay with SK-MEL-5 melanoma; 38.5 µM and > 10 µM in the assay with T-47D breast; greater than 100 µM in the assay on IGROV1 ovarian. The TGI in the assay on COLO 205 colon is 1.12 µM and 0.33 µM; in the assay on NCI/ADR-RES ovarian, 98.1 µM and > 10 µM; in the assay with OVCAR-8 ovarian, 23.4 µM and > 10 µM.

In the case of `O=C(CNC(=O)c1cccc2ccccc12)Nc1ccccc1Oc1cccc(O)c1`, the GI50 with NCI-H522 lung is 1.62 µM; with OVCAR-5 ovarian it was greater than 25 µM; in the assay with UACC-62 melanoma, 1.62 µM; with SK-MEL-5 melanoma, 1.86 µM; with T-47D breast it was 9.84 µM; in the assay on IGROV1 ovarian, 9.96 µM. Also, the GI50 with COLO 205 colon is 14.7 µM; in the assay with NCI/ADR-RES ovarian it was 7.94 µM; in the assay on OVCAR-8 ovarian, 11.4 µM; with SR leukemia it was 1.05 µM. Moreover, the TGI in the assay on NCI-H522 lung, in the assay on OVCAR-5 ovarian, in the assay on UACC-62 melanoma, in the assay on SK-MEL-5 melanoma, in the assay with T-47D breast and with IGROV1 ovarian was greater than 25 µM throughout. Besides, the TGI in the assay with COLO 205 colon, in the assay with NCI/ADR-RES ovarian, in the assay on OVCAR-8 ovarian and in the assay on SR leukemia was greater than 25 µM each time.

As for `O=C1C(NCCO)=C(N2CC2)C(=O)C(NCCO)=C1N1CC1`, the TGI in the assay on NCI-H522 lung is 70.6 µM; with OVCAR-5 ovarian it was greater than 100 µM; in the assay with UACC-62 melanoma it was 99.5 µM; in the assay with SK-MEL-5 melanoma it was greater than 85.5 µM; with T-47D breast it was greater than 100 µM; in the assay on IGROV1 ovarian, greater than 100 µM. Further, the TGI with COLO 205 colon is greater than 90.3 µM; with NCI/ADR-RES ovarian it was greater than 100 µM; in the assay on OVCAR-8 ovarian it was greater than 85.7 µM; with SR leukemia it was 51.6 µM.

Consider `C[C@]12CC[C@H]3[C@@H](CCC4=CC(=O)CC[C@@H]43)[C@@H]1CC[C@@H]2OC1(O)C(=O)c2ccccc2C1=O`, for which the TGI was 35.9 µM with NCI-H522 lung; greater than 100 µM in the assay on OVCAR-5 ovarian; 33.6 µM with UACC-62 melanoma; 35 µM in the assay with SK-MEL-5 melanoma; greater than 100 µM in the assay with T-47D breast; greater than 100 µM in the assay on IGROV1 ovarian. Further, the TGI was 53 µM in the assay on COLO 205 colon, greater than 100 µM in the assay on NCI/ADR-RES ovarian, greater than 100 µM in the assay on OVCAR-8 ovarian and greater than 100 µM in the assay with SR leukemia.
